Laboratory results as given in the supplement of paper PMC10307832.

Key:
Assay in all cases: relative viability (nuclei count vs DMSO), 5 days (fraction); higher = more cells survive
Decitabine + Olaparib = compound: Nc1ncn([C@H]2C[C@H](O)[C@@H](CO)O2)c(=O)n1 [Decitabine] + O=C(c1cc(Cc2n[nH]c(=O)c3ccccc23)ccc1F)N1CCN(C(=O)C2CC2)CC1 [Olaparib] (partner 8 µM)
Procedure, shortened: (§1)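 Lung cancer cell lines in 1536-well plates got either a single drug or a fixed anchor-drug dose together with five library-drug doses (not always all listed) in √10 steps, by pin tool, on the day after seeding. Nuclei were counted after 5 days, and relative viability is the treated-to-vehicle ratio of nuclei counts. Values are medians of duplicate plates.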

Cediranib + Linsitinib = compound: COc1cc2c(Oc3ccc4[nH]c(C)cc4c3F)ncnc2cc1OCCCN1CCCC1 [Cediranib] + C[C@]1(O)C[C@@H](c2nc(-c3ccc4ccc(-c5ccccc5)nc4c3)c3c(N)nccn32)C1 [Linsitinib] (partner 1 µM)
Procedure, shortened: as §1

[1] = compound: O=C(C[C@H]1NCCC[C@@H]1O)Cn1cnc2cc(Br)c(Cl)cc2c1=O (racemic) [Halofuginone] + CC(=O)Nc1cccc(-n2c(=O)n(C3CC3)c(=O)c3c(Nc4ccc(I)cc4F)n(C)c(=O)c(C)c32)c1 [Trametinib] (partner 0.02 µM)
Procedure, shortened: as §1

Decitabine + Linsitinib = compound: Nc1ncn([C@H]2C[C@H](O)[C@@H](CO)O2)c(=O)n1 [Decitabine] + C[C@]1(O)C[C@@H](c2nc(-c3ccc4ccc(-c5ccccc5)nc4c3)c3c(N)nccn32)C1 [Linsitinib] (partner 1 µM)
Procedure, shortened: as §1

Cell Line | relative viability (Decitabine + Olaparib; first compound 0.04 µM) | relative viability (Decitabine + Olaparib; first compound 0.1265 µM) | relative viability (Decitabine + Olaparib; first compound 0.4 µM) | relative viability (Decitabine + Olaparib; first compound 1.265 µM) | relative viability (Decitabine + Olaparib; first compound 4 µM) | relative viability (Cediranib + Linsitinib; first compound 0.04 µM) | relative viability (Cediranib + Linsitinib; first compound 0.1265 µM) | relative viability (Cediranib + Linsitinib; first compound 0.4 µM) | relative viability (Cediranib + Linsitinib; first compound 1.265 µM) | relative viability (Cediranib + Linsitinib; first compound 4 µM) | relative viability ([1]; first compound 0.001 µM) | relative viability ([1]; first compound 0.003162 µM) | relative viability ([1]; first compound 0.01 µM) | relative viability ([1]; first compound 0.03162 µM) | relative viability ([1]; first compound 0.1 µM) | relative viability (Decitabine + Linsitinib; first compound 0.04 µM) | relative viability (Decitabine + Linsitinib; first compound 0.1265 µM) | relative viability (Decitabine + Linsitinib; first compound 0.4 µM) | relative viability (Decitabine + Linsitinib; first compound 1.265 µM) | relative viability (Decitabine + Linsitinib; first compound 4 µM)
NCI-H596 | 0.609 | 0.602 | 0.353 | 0.431 | 0.56 | 1.16 | 1.07 | 1.11 | 1.05 | 1.09 | 0.889 | 0.732 | 0.811 | 0.898 | 0.542 | 1.07 | 0.983 | 0.885 | 0.826 | 0.839
NCI-H647 | 0.154 | 0.131 | 0.103 | 0.0693 | 0.0747 | 1.34 | 1.13 | 1.15 | 1.11 | 1.41 | 0.499 | 0.574 | 0.421 | 0.336 | 0.292 | 0.989 | 0.874 | 0.759 | 0.234 | 0.237
NCI-H650 | 0.196 | 0.198 | 0.203 | 0.123 | 0.152 | 0.792 | 0.681 | 0.807 | 0.706 | 0.964 | 0.898 | 1.19 | 1.09 | 1.08 | 0.77 | 0.722 | 0.538 | 0.298 | 0.258 | 0.32
NCI-H661 | 0.56 | 0.459 | 0.409 | 0.345 | 0.338 | 0.509 | 0.733 | 0.596 | 0.527 | 0.743 | 0.624 | 0.629 | 0.579 | 0.515 | 0.373 | 0.566 | 0.502 | 0.406 | 0.248 | 0.267
NCI-H727 | 0.643 | 0.54 | 0.685 | 0.55 | 0.481 | 0.293 | 0.267 | 0.33 | 0.372 | 0.279 | 0.44 | 0.362 | 0.403 | 0.406 | 0.422 | 0.303 | 0.232 | 0.302 | 0.282 | 0.234
NCI-H838 | 0.26 | 0.273 | 0.261 | 0.193 | 0.199 | 1.06 | 1.03 | 0.956 | 0.984 | 1.03 | 0.504 | 0.518 | 0.468 | 0.38 | 0.191 | 0.798 | 0.561 | 0.333 | 0.318 | 0.264
